Source: patent publication US11078170B2 (Assembly Biosciences, Inc., priority 2017, dated 2021)

Each molecule was assayed on HBV viral production from HepAD38 cells (assay: Activity of test compounds on viral production from HepAD38 cells (viral load by qPCR of HBV core sequence in supernatant)). Conditions: Hepatitis B virus, 120 h, 5 days incubation, HBV DNA in supernatant by qPCR, top concentration 10 μM, read-out: Viral Load EC50 Activity range.
Assay type: cell-based
How it was run: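 HepAD38 cells, 50,000/well in tetracycline-free 2% FBS medium, treated 5 days at 37° C. with compound from 10 μM top concentration. HBV DNA in supernatant quantified by TaqMan qPCR of core sequence against DNA standards, relative to DMSO wells; CellTiter-Glo viability read in parallel. EC50/CC50 from four-parameter logistic fit.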
Molecule CN1[C@H](C(=O)Nc2ccc(F)c(Cl)c2)C[C@H](c2cc(-c3cncs3)cs2)NS1(=O)=O [HBV-CSU-286-ISO-I, Cis-N-(3-Chloro-4-fluorophenyl)-2-methyl-5-(4-(thiazol-5-yl)thiophen-2-yl)-1,2,6-thiadiazinane-3-carboxamide 1,1-dioxide] has an EC50 of under 1000 nM. With C[C@@H]1C[C@H](C(=O)Nc2ccc(F)c(Cl)c2)N(C)S(=O)(=O)N1 [HBV-CSU-050-ISO-II, Cis-N-(3-chloro-4-fluorophenyl)-2,5-dimethyl-1,2,6-thiadiazinane-3-carboxamide 1,1-dioxide] the EC50 was over 5000 nM. With CCn1cc(-c2ccc([C@@H]3C[C@H](C(=O)Nc4ccc(F)c(Cl)c4)N(C)S(=O)(=O)N3)s2)cn1 [HBV-CSU-291-ISO-II, Cis-N-(3-chloro-4-fluorophenyl)-5-(5-(1-ethyl-1H-pyrazol-4-yl)thiophen-2-yl)-2-methyl-1,2,6-thiadiazinane-3-carboxamide 1,1-dioxide] the EC50 was over 5000 nM. In the case of CN1[C@@H](C(=O)Nc2ccc(F)c(Cl)c2)C[C@@H](c2cnc(-c3ccccc3)s2)NS1(=O)=O [HBV-CSU-235-ISO-II, N-(3-Chloro-4-fluorophenyl)-2-methyl-5-(2-phenylthiazol-5-yl)-1,2,6-thiadiazinane-3-carboxamide 1,1-dioxide], the EC50 is reported as over 5000 nM. In the case of CN1[C@H](C(=O)Nc2ccc(F)c(Cl)c2)C[C@H](c2cc(-c3cnn(CCO)c3)cs2)NS1(=O)=O [HBV-CSU-296-ISO-I, Cis-N-(3-chloro-4-fluorophenyl)-5-(4-(1-(2-hydroxyethyl)-1H-pyrazol-4-yl)thiophen-2-yl)-2-methyl-1,2,6-thiadiazinane-3-carboxamide 1,1-dioxide], the EC50 is reported as under 1000 nM. In the case of CN1[C@H](C(=O)Nc2ccc(F)c(Cl)c2)C[C@H](c2ccc(-c3ncnn3C)s2)NS1(=O)=O [HBV-CSU-323-ISO-I, Cis-N-(3-Chloro-4-fluorophenyl)-2-methyl-5-(5-(1-methyl-1H-1,2,4-triazol-5-yl)thiophen-2-yl)-1,2,6-thiadiazinane-3-carboxamide 1,1-dioxide], the EC50 is reported as under 1000 nM. CN1[C@H](C(=O)Nc2ccc(F)c(Cl)c2)C[C@H](c2ccc(Cl)cc2)NS1(=O)=O [HBV-CSU-265-ISO-I] gave an EC50 of under 1000 nM. Molecule CN1C(C(=O)Nc2ccc(F)c(Cl)c2)CC(c2ccc(-c3ccccn3)s2)NS1(=O)=O (racemic) [HBV-CSU-160, Cis-N-(3-chloro-4-fluorophenyl)-2-methyl-5-(5-(pyridin-2-yl)thiophen-2-yl)-1,2,6-thiadiazinane-3-carboxamide 1,1-dioxide] has an EC50 of under 1000 nM. With CN1C(C(=O)Nc2ccc(F)c(Br)c2)CC(c2ccc(F)cc2)NS1(=O)=O (racemic) [HBV-CSU-211, Cis-N-(3-Bromo-4-fluorophenyl)-5-(4-fluorophenyl)-2-methyl-1,2,6-thiadiazinane-3-carboxamide 1,1-dioxide] the EC50 was under 1000 nM. Molecule Cc1ncc([C@@H]2C[C@H](C(=O)Nc3ccc(F)c(Cl)c3)N(C)S(=O)(=O)N2)s1 [HBV-CSU-224-ISO-II, Cis-N-(3-Chloro-4-fluorophenyl)-2-methyl-5-(2-methylthiazol-5-yl)-1,2,6-thiadiazinane-3-carboxamide 1,1-dioxide] has an EC50 of over 5000 nM. In the case of CC(C)n1cc(-c2csc([C@H]3C[C@@H](C(=O)Nc4ccc(F)c(Cl)c4)N(C)S(=O)(=O)N3)c2)cn1 [HBV-CSU-295-ISO-I, Cis-N-(3-chloro-4-fluorophenyl)-5-(4-(1-isopropyl-1H-pyrazol-4-yl)thiophen-2-yl)-2-methyl-1,2,6-thiadiazinane-3-carboxamide 1,1-dioxide], the EC50 is reported as under 1000 nM. Work on CN1C(C(=O)Nc2ccc(F)c(Cl)c2)CC(c2nnc(-c3ccccc3)s2)NS1(=O)=O (racemic) [HBV-CSU-120, Cis-N-(3-Chloro-4-fluorophenyl)-2-methyl-5-(5-phenyl-1,3,4-thiadiazol-2-yl)-1,2,6-thiadiazinane-3-carboxamide 1,1-dioxide] yielded an EC50 of under 1000 nM. CN1C(C(=O)Nc2ccc(F)c(Cl)c2)CC(c2cc(Br)cs2)NS1(=O)=O (stereo not shown) [HBV-CSU-146, 5-(4-Bromothiophen-2-yl)-N-(3-chloro-4-fluorophenyl)-2-methyl-1,2,6-thiadiazinane-3-carboxamide 1,1-dioxide] was tested, and the EC50 was under 1000 nM. CN1C(C(=O)Nc2ccc(F)c(Cl)c2)CC(c2ccc(F)cn2)NS1(=O)=O (stereo not drawn) [HBV-CSU-032, Cis-N-(3-Chloro-4-fluorophenyl)-5-(5-fluoropyridin-2-yl)-2-methyl-1,2,6-thiadiazinane-3-carboxamide 1,1-dioxide] showed an EC50 of under 1000 nM. With O=C(Nc1ccc(F)c(Cl)c1)C1CC(c2nccs2)NS(=O)(=O)N1CCCO (racemic) [HBV-CSU-078, Cis-N-(3-Chloro-4-fluorophenyl)-2-(3-hydroxypropyl)-5-(thiazol-2-yl)-1,2,6-thiadiazinane-3-carboxamide 1,1-dioxide] the EC50 was 1000 to 5000 nM. CN1[C@@H](C(=O)Nc2ccc(F)c(Cl)c2)C[C@@H](c2ccc(Br)s2)NS1(=O)=O [HBV-CSU-114-ISO-II, 5-(5-Bromothiophen-2-yl)-N-(3-chloro-4-fluorophenyl)-2-methyl-1,2,6-thiadiazinane-3-carboxamide 1,1-dioxide] gave an EC50 of over 5000 nM. In the case of CN1[C@H](C(=O)Nc2ccc(F)c(Cl)c2)C[C@@H](c2ccc(Br)s2)NS1(=O)=O [HBV-CSU-114-Trans-ISO-II, (3S,5S)-5-(5-bromothiophen-2-yl)-N-(3-chloro-4-fluorophenyl)-2-methyl-1,2,6-thiadiazinane-3-carboxamide 1,1-dioxide], the EC50 is reported as 1000 to 5000 nM. CN1C(C(=O)Nc2ccc(F)c(Cl)c2)CC(c2cc(-c3ccc(C(F)(F)F)nc3)cs2)NS1(=O)=O (racemic) [HBV-CSU-166, Cis-N-(3-chloro-4-fluorophenyl)-2-methyl-5-(4-(6-(trifluoromethyl)pyridin-3-yl)thiophen-2-yl)-1,2,6-thiadiazinane-3-carboxamide 1,1-dioxide] showed an EC50 of under 1000 nM. In the case of CN1[C@H](C(=O)Nc2ccc(F)c(C(F)(F)F)c2)C[C@H](c2cccs2)NS1(=O)=O [HBV-CSU-046-ISO-I, Cis-N-(4-Fluoro-3-(trifluoromethyl)phenyl)-2-methyl-5-(thiophen-2-yl)-1,2,6-thiadiazinane-3-carboxamide 1,1-dioxide], the EC50 is reported as under 1000 nM. In the case of CN1C(C(=O)Nc2ccc(F)c(Cl)c2)CC(c2ncc(-c3ccc(Br)c(F)c3)s2)NS1(=O)=O (racemic) [HBV-CSU-173, Cis-5-(5-(4-Bromo-3-fluorophenyl)thiazol-2-yl)-N-(3-chloro-4-fluorophenyl)-2-methyl-1,2,6-thiadiazinane-3-carboxamide 1,1-dioxide], the EC50 is reported as under 1000 nM. CN1C(C(=O)Nc2ccc(F)c(Cl)c2)CC(c2cccc(OC(F)F)c2)NS1(=O)=O (racemic) [HBV-CSU-264, Cis-N-(3-chloro-4-fluorophenyl)-5-(3-(difluoromethoxy)phenyl)-2-methyl-1,2,6-thiadiazinane-3-carboxamide 1,1-dioxide] was tested, and the EC50 was under 1000 nM. CN1C(C(=O)Nc2ccc(F)c(Cl)c2)CC(c2ccc(-c3cccnc3)s2)NS1(=O)=O (racemic) [HBV-CSU-159, Cis-N-(3-chloro-4-fluorophenyl)-2-methyl-5-(5-(pyridin-3-yl)thiophen-2-yl)-1,2,6-thiadiazinane-3-carboxamide 1,1-dioxide] showed an EC50 of under 1000 nM. Molecule CN1[C@@H](C(=O)Nc2ccc(F)c(Cl)c2)C[C@@H](c2cc(-c3cncnc3)cs2)NS1(=O)=O [HBV-CSU-290-ISO-II, Cis-N-(3-chloro-4-fluorophenyl)-2-methyl-5-(4-(pyrimidin-5-yl)thiophen-2-yl)-1,2,6-thiadiazinane-3-carboxamide 1,1-dioxide] has an EC50 of 1000 to 5000 nM. For CC(C)(C)OCCN1[C@H](C(=O)Nc2ccc(F)c(Cl)c2)C[C@H](c2nccs2)NS1(=O)=O [HBV-CSU-071-ISO-I, Cis-2-(2-(tert-Butoxy)ethyl)-N-(3-chloro-4-fluorophenyl)-5-(thiazol-2-yl)-1,2,6-thiadiazinane-3-carboxamide 1,1-dioxide], the EC50 was under 1000 nM. Work on O=C(Nc1ccc(F)c(Cl)c1)[C@H]1C[C@@H](c2nccs2)NS(=O)(=O)N1 [HBV-CSU-096-ISO-I, Cis-N-(3-Chloro-4-fluorophenyl)-5-(thiazol-2-yl)-1,2,6-thiadiazinane-3-carboxamide 1,1-dioxide] yielded an EC50 of over 5000 nM. Work on [2H]C1[C@]([2H])(c2ncc(-c3cn(C([2H])([2H])[2H])cn3)s2)NS(=O)(=O)N(C([2H])([2H])[2H])[C@]1([2H])C(=O)Nc1ccc(F)c(Cl)c1 (stereo in doubt) [HBV-CSU-339-ISO-I, Cis-N-(3-Chloro-4-fluorophenyl)-2-(methyl-d3)-5-(5-(1-(methyl-d3)-1H-imidazol-4-yl)thiazol-2-yl)-1,2,6-thiadiazinane-3,4,5-d3-3-carboxamide 1,1-dioxide] yielded an EC50 of under 1000 nM. Work on CN1C(C(=O)Nc2ccc(F)c(Cl)c2)CC(c2cnc(C(F)(F)F)s2)NS1(=O)=O (stereo not drawn) [HBV-CSU-226, Cis-N-(3-chloro-4-fluorophenyl)-2-methyl-5-(2-(trifluoromethyl)thiazol-5-yl)-1,2,6-thiadiazinane-3-carboxamide 1,1-dioxide] yielded an EC50 of 1000 to 5000 nM. For NC(=O)CN1C(C(=O)Nc2ccc(F)c(Cl)c2)CC(c2nccs2)NS1(=O)=O (stereo not shown), the EC50 was 1000 to 5000 nM. C#CCN1[C@H](C(=O)Nc2ccc(F)c(Cl)c2)C[C@H](c2nccs2)NS1(=O)=O (relative stereo) [HBV-CSU-089-ISO-I, Cis-N-(3-chloro-4-fluorophenyl)-2-(prop-2-yn-1-yl)-5-(thiazol-2-yl)-1,2,6-thiadiazinane-3-carboxamide 1,1-dioxide] was tested, and the EC50 was under 1000 nM. CN1[C@@H](C(=O)Nc2ccc(F)c(Cl)c2)C[C@@H](c2cc(-c3cn[nH]c3)cs2)NS1(=O)=O [HBV-CSU-245-ISO-II] showed an EC50 of under 1000 nM. For COC(=O)c1ccc(C2CC(C(=O)Nc3ccc(F)c(Cl)c3)N(C)S(=O)(=O)N2)cc1 (stereo not drawn) [HBV-CSU-256, Cis-methyl 4-(5-((3-chloro-4-fluorophenyl)carbamoyl)-6-methyl-1,1-dioxido-1,2,6-thiadiazinan-3-yl)benzoate], the EC50 was 1000 to 5000 nM.
